Assay [1] relates to liver implanted VX2 tumors. The assay is described as follows: Direct intraarterial injection into liver implanted VX2 tumors, tumor histology. As to conditions: single intraarterial injection. The assay is classed as in vivo, rabbit. The text has this: The rabbit VX2 tumor was selected for implantation in the liver because of the similarities of its blood supply to that of human hepatomas. Other attributes of this tumor include rapid tumor growth, development of a sizable tumor that can be readily identified by x-ray imaging (fluoroscopy), and a biochemical phenotype characteristic of advanced stage tumors, i.e., high glycolysis and elevated levels of mitochondrial bound hexokinase. In addition, the rabbit is large enough that selective manipulation of catheters in the hepatic artery from the common femoral artery for delivery of agents is possible. Adult New Zealand white rabbits (32 total, Robinson Services, Inc.) weighing 3.5-4.2 kg were used. Studies with these animals were approved by the Johns Hopkins University Animal Care and Use Committee and carried out according to their guidelines. For successful implantation of the VX2 tumor into the liver, it was first grown for 2 weeks on the hind leg of a carrier rabbit. Each carrier rabbit was used to supply tumor cells for implantation into the left lobe of the liver of 2 separate rabbits. All animals, carriers and recipients, were anesthetized with a mixture of acepromazine (2.5 mg/kg) and ketamine hydrochloride (44 mg/kg) administered intramuscularly. Intravenous access was gained via a marginal ear vein and sodium pentothal was given intravenously to maintain anesthesia. The VX2 tumor was then excised from the carrier rabbit and placed in Hanks solution. Chunks of the tumor were minced in the same solution. Then, the abdomens of the recipient rabbits were shaved and prepped with betadine after which a midline subxyphoid incision was made. The anterior surface of the liver was exposed and tumor cells (0.1-0.2 ml) from the minced donor tumor were directly implanted onto the left lobe of the liver using the outer cannula of a 21-gauge angiocatheter. This method allows the growth of a single solitary, well-demarcated tumor in the liver of each recipient rabbit. The abdomen was closed in 2 layers. Proper aseptic technique was rigorously observed during each implantation. After surgery, animals were returned to their cages, kept warm with blankets, and monitored in the animal laboratory under the direct supervision of a physician or a technician until they recovered from anesthesia. […] The tumors were allowed to grow for another 14 days at which time they reached an ellipsoidal shape with dimension of approximately 1.5×1.8×2.5 cm. […]
Administration of anesthesia, intravenous access and sodium pentothal anesthesia were carried out as described in Example 12. […] The tumor could readily be visualized as a region of hypervascular blush located on the left side of the liver near the gastric fundus. […]

Assay [2] has as its system rabbit VX2 tumor mitochondria. The assay is described as follows: Mitochondrial respiration (oxygen consumption). The assay is classed as biochemical. As to conditions: 1.2 mM. The protocol: The freshly isolated liver or VX2 tumor tissues (15-20 g wet weight) was rinsed in 3 volumes of H-medium (210 mM D-mannitol, 70 mM sucrose, 2 mM Hepes, and 0.05% bovine albumin, pH 7.4) at 4° C. and minced with a razor blade as finely as possible. A 30% (V/V) suspension was made using ice-cold H-medium in a Potter-Elvehjem glass homogenizer (55 ml capacity), and homogenization was achieved by applying 4 complete up and down strokes through the suspension with a rotating (˜400 rpm), serrated, teflon pestle attached to a motor. To remove cell debris and nuclei, the resultant homogenate was diluted to twice the initial volume and centrifuged at 630×g for 8 minutes at 4° C. in a Sorvall RC-2B centrifuge using a GSA rotor. The supernatant was removed and then centrifuged at 6,800 g for 15 min under the same conditions. The resultant supernatant was saved and referred to here as the cytosolic faction. […]
Oxygen consumption rates were measured polarographically using a Clark oxygen electrode inserted into a 2.5 ml chamber equipped with a magnetic stirrer. […] The loss of oxygen was monitored in a 2.1 ml system at 25° C. containing 1 mg mitochondria, 0.5 mM EDTA, 2.0 mM Hepes, 220 mM D-mannitol, 70 mM sucrose, 2.5 mM KPi, 2.6 mM MgCl2, and 0.5 mg/ml bovine albumin, and, where indicated, 7.8 mM succinate (respiratory substrate), and 0.24 mM ADP (ATP synthesis substrate). […]

On to `O=C(O)C(=O)CBr` [3BrPA, 3-bromopyruvic acid], for which the “maximal number of non-viable cells observed in any one experiment” value in assay [1] stood at 90%. In assay [1] (25 ml 0.5 mM, 4 days), the “total non-viable cells in the tumor” value was determined as 84±5% and the “viable cells in the tumor” value is recorded as 16±5%. Further, in assay [1] (4 days), the “necrosis in tumor sections outside the central core region” value was approximately 100%. Moreover, the “inhibition of mitochondrial respiration (basal succinate rate and ADP stimulated rate)” value in assay [2] is on record as “completely inhibits”.
